Assay [1] has as its target T1, T4 lysozyme L99A/M102H† (Enterobacteria phage T4, UniProt P00720, C54T/C97A/E108V/L99A/M102H/N144D/S117V/S38D/T142C/T21C). Type of assay: binding. As to conditions: crystal structure.
Assay [2] concerns the target T1, T4 lysozyme L99A/M102H†. It is filed as binding.
In assay [3] the target is T1, T4 lysozyme L99A/M102H†. It is filed as binding. This is another data set of the same source.
Assay [4] has as its system T4 lysozyme L99A. Particulars: cited from earlier work.

On to `C#CC(O)c1ccccc1` (stereo not drawn) [1-phenyl-2-propyn-1-ol, 1-phenyl-2-propyn-1-ol], for which the “hydrogen bond distance between ligand and His102” value in assay [1] was 2.77 Å.
Same read-out and setting: the same measure for `C=CCc1ccccc1O` [2-allyl phenol]: 3.00 Å.
Regarding `Nc1ncc(Cl)s1` [2-amino-5-chloro thiazole], the “hydrogen bond distance between ligand and His102” value in assay [1] was 2.89 Å.
Same read-out and setting: in the case of `O=Cc1cc(O)ccc1Br` [2-bromo-5-hydroxybenzaldehyde] it was 2.50 Å; in that of `Cc1cc(C(F)(F)F)n[nH]1` [3-methyl-5-(trifluoromethyl) pyrazole], 2.90 Å; in that of `Brc1c[nH]cn1` [4-bromoimidazole], 2.93 Å.
As to `O=[N+]([O-])c1ccc(O)cc1` [4-nitrophenol], the “ΔGmelt (change of stability on ligand binding, ΔTm × ΔS)” value in assay [2] is listed as 1.4 kcal/mol. Also, in assay [3], the “interaction with His102 stronger than with Gln102 (double perturbation analysis)” value was determined as 2.4 kcal/mol.
`FC(F)(F)c1c[nH]cn1` [4-trifluoromethyl imidazole]: the “hydrogen bond distance between ligand and His102” value in assay [1] is on record as 2.85 Å.
As to `N#Cc1cc(Br)ccc1O` [5-bromo-2-hydroxybenzonitrile], the “ΔGmelt (change of stability on ligand binding, ΔTm × ΔS)” value in assay [2] was 0.6 kcal/mol.
Regarding `Oc1ccccc1` [phenol], the “binding to L99A cavity” value in assay [4] is given as “does not measurably bind”.
As to `C=CSc1ccccc1` [phenyl vinyl sulfide], in assay [2], the “ΔGmelt (change of stability on ligand binding, ΔTm × ΔS)” value is given as 0.25 kcal/mol.

(Values after article PMC3624796 (Journal of Medicinal Chemistry, 2013).)
